In publication PMC10045534, “Preparation and Evaluation of 6-Gingerol Derivatives as Novel Antioxidants and Antiplatelet Agents” (Antioxidants, 2023):

Tests used:
COX-1 enzyme = biological target: T1, COX-1 enzyme (Ovis aries, UniProt P05979); experiment: COX-1 inhibitor screening kit, fluorometric (BioVision K548-100); type: biochemical; conditions: for LLE(COX-1): LLE = pIC50 − logPpredicted; for IC50: mean ± SEM, n = 2
T1 construct: purchased BioVision (via VWR International Kft.) K548-100
T1 sequence (P05979 25-600): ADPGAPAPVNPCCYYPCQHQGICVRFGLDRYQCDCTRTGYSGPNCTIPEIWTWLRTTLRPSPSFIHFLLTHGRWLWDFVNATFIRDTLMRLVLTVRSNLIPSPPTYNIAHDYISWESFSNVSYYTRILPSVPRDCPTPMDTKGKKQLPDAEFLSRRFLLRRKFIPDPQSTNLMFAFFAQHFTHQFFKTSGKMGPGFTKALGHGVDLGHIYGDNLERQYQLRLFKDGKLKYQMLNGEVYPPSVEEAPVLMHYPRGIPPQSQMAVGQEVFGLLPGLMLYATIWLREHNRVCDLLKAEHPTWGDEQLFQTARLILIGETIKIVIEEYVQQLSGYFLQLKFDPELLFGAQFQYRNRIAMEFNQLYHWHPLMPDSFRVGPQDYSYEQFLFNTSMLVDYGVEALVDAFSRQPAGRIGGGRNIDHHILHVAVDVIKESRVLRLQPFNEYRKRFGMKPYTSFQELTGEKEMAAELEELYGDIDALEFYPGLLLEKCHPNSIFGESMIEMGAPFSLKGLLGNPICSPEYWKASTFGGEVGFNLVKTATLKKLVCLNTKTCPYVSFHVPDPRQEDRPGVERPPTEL
Protocol: COX-1 inhibitory activity was tested based on the fluorometric method as described in BioVision’s COX-1 inhibitor screening kit leafkit (K548-100, BioVision, CA, USA). Sample solutions were prepared by dissolving in DMSO and subsequently buffer, to get desired concentrations. In a 96-well white plate (655101, F-bottom, Grenier bio-one, Germany), 80 µL reaction mix (containing 76 µL assay buffer, 1 µL COX Probe, 2 µL COX cofactor, and 1 µL COX-1 enzyme) was added to 10 µL sample solution, DMSO and assay buffer to get test wells assigned for sample screen (S), negative control (N) and blank, respectively. An aliquot of 10 µL of arachidonic/NaOH solution was added to each well using a multi-channel pipette to initiate the reaction at the same time, and the fluorescence of each well was measured kinetically at Ex/Em 550/610 nm, at 25OC for 10 min using a FluoStar Optima plate reader (BMG Labtech, Ortenberg, Germany). The COX inhibitory activity of SC560, a standard inhibitor, was also determined.
The change in fluorescence between two points, T1 and T2 were determined, and relative inhibition was calculated according to the following equation:% Inhibition = (ΔN − ΔS)/ΔN × 100 (1) where N is the absorbance of the negative control, and S is that of the sample.
Dose-effect studies on the compounds were used to determine the concentration that inhibits 50% of the enzyme activity. The sigmoidal dose–response model was obtained by using the software GraphPad Prism 8.0 (La Jolla, CA, USA), and these were used to determine the IC50 values of the compounds.

[1] = Oxygen radical absorbance capacity (ORAC); conditions: 1 µM sample; mean ± SEM, n = 3
Protocol: AAPH ((2,20-Azobis(2-methyl-propionamidine) dihydrochloride) free radical and Trolox standard were purchased from Sigma-Aldrich Hungary. Fluorescein was purchased from Fluka Analytical, Tokyo, Japan. ORAC assay was carried out In a 96-well microplate based on the method from previous study. Briefly, 20 µL of the samples (1 µM final concentration, dissolved in phosphate buffer, pH = 7.4, containing 1% MeOH) were mixed with 60 µL of AAPH (12 mM final concentration, dissolved in phosphate buffer, pH = 7.4) and 120 µL of fluorescein solution (70 nM final concentration, dissolved in phosphate buffer), then the fluorescence was measured (excitation at λ = 485 nm, and emission at λ = 520 nm) through 3 h with 1.5-min cycle intervals with a BMG Labtech FluoStar Optima plate-reader. All experiments were carried out in triplicate, and Trolox was used as standard. The antioxidant capacity is expressed as Trolox Equivalent (TE), as calculated using GraphPad Prism 8.0 (La Jolla, CA, USA).

LLE(COX-1) (COX-1 enzyme) | IC50 (COX-1 enzyme) [µM] | SMILES | ORAC TE [1]
1.30 | 62.5 ± 23.8 | CCCCC[C@H](O)CC(=O)CCc1ccc(O)c(OC)c1 [Compound 1, (S)-5-hydroxy-1-(4-hydroxy-3-methoxyphenyl)decan-3-one] | 1.30 ± 0.04 Trolox equivalents (TE)
0.81 | 9.8 ± 0.6 | CCCCC/C=C/C(=O)CCc1ccc(O)c(OC)c1 [Compound 2, 6-shogaol] | 1.10 ± 0.03 Trolox equivalents (TE)
1.26 | 4.4 ± 0.2 | CCCCCCCC(=O)CCc1ccc(O)c(OC)c1 [Compound 3, 4,5-dihydro-6-shogaol] | 1.36 ± 0.02 Trolox equivalents (TE)
0.48 | 5.2 ± 0.3 | CCCCCCCC(CCc1ccc(O)c(OC)c1)=NO [Compound 4, 1-(4-hydroxy-3-methoxyphenyl)decan-3-one oxime] | 0.47 ± 0.09 Trolox equivalents (TE)
1.27 | 54.3 ± 6.5 | CCCCC[C@H](O)C[C@H](O)CCc1ccc(O)c(OC)c1 [Compound 5, (3R,5S)-1-(4-hydroxy-3-methoxyphenyl)decane-3,5-diol] | 2.30 ± 0.05 Trolox equivalents (TE)
1.12 | 76.2 ± 0.3 | CCCCC[C@H](O)C[C@@H](O)CCc1ccc(O)c(OC)c1 [Compound 6, (3S,5S)-1-(4-hydroxy-3-methoxyphenyl)decane-3,5-diol] | 1.12 ± 0.03 Trolox equivalents (TE)
0.74 | 3.6 ± 0.2 | CCCCCc1cc(CCc2ccc(O)c(OC)c2)[nH]n1 [Compound 14, 2-methoxy-4-(2-(3-pentyl-1H-pyrazol-5-yl)ethyl)phenol] | 0.44 ± 0.07 Trolox equivalents (TE)
– | > 200 | CCCCCc1cc(CCc2ccc(O)cc2)[nH]n1 [Compound 15, 4-(2-(3-pentyl-1H-pyrazol-5-yl)ethyl)phenol] | 1.00 ± 0.02 Trolox equivalents (TE)
−0.04 | 17.5 ± 0.1 | CCCCCc1cc(/C=C/c2ccc(O)cc2)[nH]n1 [Compound 16, (E)-4-(2-(3-pentyl-1H-pyrazol-5-yl)vinyl)phenol] | 2.88 ± 0.16 Trolox equivalents (TE)
0.83 | 5.85 ± 0.04 | CCCCCc1cc(/C=C/c2ccc(O)c(OC)c2)on1 [Compound 17, (E)-2-methoxy-4-(2-(3-pentylisoxazol-5-yl)vinyl)phenol] | 0.77 ± 0.20 Trolox equivalents (TE)
– | > 200 | CCCCCc1cc(/C=C/c2ccc(O)cc2)on1 [Compound 18, (E)-4-(2-(3-pentylisoxazol-5-yl)vinyl)phenol] | 1.76 ± 0.06 Trolox equivalents (TE)
– | > 100 | CCCCCCCNC(=O)CCc1ccc(O)c(OC)c1 [Compound 22] | 1.62 ± 0.004 Trolox equivalents (TE)
